The source of these data is patent US20200261534A1, “NEW TREATMENTS OF MULTIPLE MYELOMA” (priority 2017, published 2020).

Starred links: 1 amine or outer side, 2 acyl side, 3 side chain; linkers in the order of their positions; H or OH if unused. Positions of bridges follow the written chain, without caps; N, C: chain ends. Non-standard residues stand in square brackets, D forms with d. Residues, ends and D or L forms follow the SMILES beside them. ξ: configuration not given here. ξαMeNle(6-ylidene) = CC(CCCC=[*:3])(N[*:1])C(=O)[*:2]; X1 = CC(CCCCCCC=[*:3])(N[*:1])C(=O)[*:2]

Holding throughout (assay type): cell-based
Experiment [1] concerns BJ, fibroblast (normal skin). The experiment can be described thus: MTT viability assay, BJ. The conditions noted are these: incubation 24-72 h, Table 3. Here is the method: BJ, fibroblast (normal skin), ATCC® CRL-2522™
Cell lines A549, MCF-7 and RAMOS were cultured in incubator under CO2 (6%) at 37° C. in DMEM high glucose (Dulbecco's Modified Eagle Solution, Gibco-BRL 31966-21) medium with 10% fetal bovine serum inactivated (FBS) (Gibco-BRL 10106-169). Cell lines HL-60 and MM.1S were cultured in incubator at 37° C. in RPMI-1640 (Sigma R8758) medium with 10% of fetal bovine serum inactivated (FBS) and 2 mM glutamine (Sigma G7513). Cell lines BJ were cultured in incubator under CO2 (6%) at 37° C. in Eagle's Minimum Essential Medium (Sigma, M-2279) with 10% fetal bovine serum inactivated (FBS) (Gibco-BRL 10106-169).
During the amplification step and the assays adherent cells were rinsed with DPBS (Dulbecco's Phosphate Buffered Saline, Sigma D1283) three times and afterward treated for 5 minutes with trypsin ([…]) (Gibco-BRL, 15400054) in solution of DPBS at 37° C., and, once detached, transferred in the culturing medium. […] Cells were counted in a Neubauer chamber after labelling with Tripan-Blue. […]
Cells were incubated with the compounds at the indicated concentrations during 24-72 h in incubator under CO2 atmosphere at 37° C. Then, cell viability was measured by means of MTT (3-(4,5-dimethylthiazol-2-yl)-2,5-diphenyltetrazolium bromide) assay. […] Absorbance at 570 nm was finally measured. […]
In general terms: Tetrazolium assays rely on reduction of a dye to a coloured formazan, in cell work by metabolically active cells.

Experiment [2] has as its system NCI-H929, lymphoblast (myeloma). The experiment can be described thus: MTT viability assay, NCI-H929. The following applies: 24-72 h, Table 7, read-out: IC50 values in μM for S09. Here is the method:
NCI-H929, lymphoblast (myeloma), ATCC® CRL-9068™
(§1) All cell lines were cultured in incubator at 37° C. in RPMI-1640 (Sigma R8758) medium with 10% of fetal bovine serum inactivated (FBS) and 2 mM glutamine (Sigma G7513). During the amplification step cells were centrifuged and transferred into the culturing medium. Cells were counted in a Neubauer chamber after labelling with Tripan-Blue.
(§2) Cells were seeded at a density of 10000 cells/well in 100 μl of medium in 96 well plates. After 24 h, the compounds to be tested were added to calculate the dose/response curve at the starting concentration of 100 μM with serial dilutions (1:1). Controls are the untreated cells. Each experiment was performed in triplicate.
(§3) Cells were incubated with the peptidomimetic compound (S09) at the indicated concentrations during 24-72 h in incubator under CO2 atmosphere at 37° C. Then, cell viability was measured by means of MTT (3-(4,5-dimethylthiazol-2-yl)-2,5-diphenyltetrazolium bromide) assay. Stock solution of MTT (475989 Calbiochem) was 5 mg/ml in PBS. […] Absorbance at 570 nm was finally measured. […]
(§4) Data analysis was performed calculating the percentage of cell viability normalized vs. the values of negative control, which was considered equal to 100%. The dose/response curve was fitted through the sigmoidal equation dose-response (variable slope) and the IC50 values were calculated as follow: […]

In experiment [3] the test system is OPM-2, lymphoblast (myeloma). The experiment can be described thus: MTT viability assay, OPM-2. The following applies: OPM2, 24-72 h, Table 7, read-out: IC50 values in μM for S09. Here is the method: OPM-2, lymphoblast (myeloma), DSMZ No. ACC50
as §1, §2, §3, §4

Experiment [4] concerns U266, lymphoblast (myeloma). The experiment can be described thus: MTT viability assay, U266. The following applies: 24-72 h, Table 7, read-out: IC50 values in μM for S09. The procedure:
U266, lymphoblast (myeloma), ATCC® TIB196™
as §1, §2, §3, §4

As to `CC[C@H](C)[C@H](NC(=O)[C@H](Cc1ccc(O)cc1)NC(=O)[C@H](C)NC(=O)C1(C)CCCC=CCCCCCCC(C)(NC(=O)[C@H](CCCCN)NC(=O)[C@@H]2CCCN2C(=O)[C@H](C)N)C(=O)N[C@@H](C(C)C)C(=O)N[C@@H]([C@@H](C)CC)C(=O)N[C@@H](CC(C)C)C(=O)N[C@@H](CCCCN)C(=O)N[C@@H](CCCCN)C(=O)N[C@@H](C)C(=O)N1)C(=O)N[C@@H](CC(C)C)C(=O)N[C@@H](CO)C(=O)O` (stereo partly shown) [S09, APKXVILKKAXAYILS—OH] (H-APK[X1]VILKKA[ξαMeNle(6-ylidene)]AYILS-OH; staple 4-11; N-terminus assumed), the IC50 (usually the point on the concentration scale where inhibition reaches its midpoint) was 47 ± 0.2 µM in experiment [1], 3.6 µM in experiment [2], 4.8 µM in experiment [3] and 7.5 µM in experiment [4].
